The values that follow come from patent US8648115B2 (priority 2009, dated 2014).

Data set [1] deals with Phytophthora infestans. Kind of data set: microbe, parasite or virus in culture. Type of data set: cell-based.
The test system of data set [2] is Phytophthora infestans. Type of data set: in vivo. Conditions: 3 days after inoculation.
The subject of data set [3] is Potato plants (Solanum tuberosum L. cv. Désirée). The note with it: in vivo.
The test system of data set [4] is Phytophthora infestans. Kind of data set: microbe, parasite or virus in culture. Type of data set: cell-based. Conditions: for IC50: Phytophthora infestans, read-out: Phytophtora infestans (mycelial growth) IC 50.
The test system of data set [5] is Phytophthora infestans. Type of data set: cell-based. The note with it: lower concentrations (1-100 μM drops); three-week old mycelium; 24 h.
In data set [6] the test system is Colletotrichum coccodes. Kind of data set: Colletotrichum coccodes mycelial growth bioassay (OD590). Type of data set: cell-based. How it is done: FIG. 6: Inhibitory effect of (E)-4-oxohexadec-2-enoic acid on the mycelial growth of Colletotrichum coccodes. One-day old mycelium in 96-well plates was inoculated with different (E)-4-oxohexadec-2-enoic acid concentrations. The growth of C. coccodes was determined by measuring the OD590. The experiment was repeated twice, with identical results.
C. coccodes (CBS369.75) was grown for five days in 50 ml of liquid soybean medium in the dark at 18° C. on a rotary shaker. In order to isolate spores, all of the culture was centrifuged for 5 min at 2100 g and 4° C. The supernatant, which contained the spores, was recentrifuged (10 min, 6500 g, 4° C.). After the supernatant had been decantered off, the pelleted spores were washed carefully in deionized water, centrifuged as above and finally the spore concentration was adjusted to 1×10^5 spores/ml in soybean medium. To carry out the biotest, 200 μl of this spore solution were pipetted into each well of a 96-well plate (Nunc A/S, Denmark). The plates were incubated in an incubator for 24 h at 17° C. in the dark to allow germination. Then, test concentrations of (E)-4-oxohexadec-2-enoic acid were pipetted in as described above, with final concentrations of from 0.01 μM to 100 μM and 2% (v/v) ethanol. The plates were returned into the incubator and the increase in fungal biomass was determined by daily OD590 measurements.
To determine whether (E)-4-oxohexadec-2-enoic acid also has an inhibitory effect on the ascomycete c. coccodes, the causative organism of, inter alia, black dot disease of potato, a multiwell bioassay was set up. The growth of the fungus in liquid medium was determined on the basis of the measurement of the optical density (OD590). A medium containing soya was used for this purpose. One-day old mycelium was inoculated together with various concentrations of (E)-4-oxohexadec-2-enoic acid, and the growth of C. coccodes was determined every 24 h. […] Increasing concentrations reduced the fungal growth even further.

The mark [7] stands for this setting: Phytophthora infestans, read-out: Phytophthora infestans (spore germination) IC 50, spore germination.
Setting [8] is: read-out: Phytophthora infestans (spore germination) IC 50, spore germination.

Each structure is given as a SMILES string. Where “and” joins values, the source holds several entries; their conditions need not be identical. Equal entries are not always repeated. Where two headings read alike, the source gives them in different places. Where only a bound is given, the exact number is not on record here.

In the case of `CCCCCC(=O)/C=C/C(=O)O` [drawing 6], in data set [1] (setting [7]), the IC50 came to 14 nM.

`CCCCCCCCCCCCC(=O)/C=C/C(=O)[O-].[Na+]` [sodium (E)-4-oxohexadec-2-enoate, Sodium (E)-4-oxohexadec-2-enoate]: the “Inhibition of infection with P. infestans compared with untreated control plants” value was 80% in data set [2] (10 μM spray 2 h before inoculation) and 95% in data set [2] (100 μM spray 2 h before inoculation). Further, the “Toxic effects on the leaves” value in data set [3] is given as “no toxic effects on the leaves”.

Take `CCCC(=O)/C=C/C(=O)O`: the IC50 in data set [1] (setting [7]) is 14 nM and 0.0019 µg/mL.

Consider `CCCCCC(=O)/C=C/C(=O)O` [drawing 5], for which the IC50 in data set [1] (setting [7]) stood at 0.002 µg/mL; in data set [1] (setting [8]), 12 nM.

With `CCCCCCCCCCCCC(=O)/C=C/C(=O)O` [drawing 8], the IC50 in data set [4] is 450 µM and 121 µg/mL; in data set [1] (setting [7]), 70 nM and 0.0018 µg/mL.

As for `O=C(O)/C=C/C(=O)CCCCCCCCCCF`, the IC50 in data set [4] was 80 µM and 20.7 µg/mL; in data set [1] (setting [7]), 70 nM and 0.018 µg/mL.

For the molecule `CCCCCCCCCCCCC(=O)/C=C/C(=O)[O-].[K+]` [drawing 9], the IC50 in data set [1] (setting [7]) came to 0.018 µg/mL; in data set [1] (setting [8]) it was 60 nM.

Turning to `CCCCCCCCCCCCC(=O)/C=C/C(=O)O` [(E)-4-oxohexadec-2-enoic acid], the “Viability of mature mycelium” value in data set [5] is recorded as “clear negative effect on mycelia viability”. For the same molecule, the “Mycelial growth (GFP fluorescence)” value in data set [4] (1 mM, one-day old mycelium) is listed as “growth was inhibited”. Besides, the Spore germination entry is reported as “reduced” in data set [1] (10 nM, 24 h) and “prevented completely” in data set [1] (3.7 μM, 24 h). In data set [1] (100 nM, 24 h), the “Reduction of spore germination compared with the ethanol control” value is reported as “more than 50%”. Further, the Spores germinated in data set [1] (1 μM, 24 h) is recorded as below 10%. Also, the Spore lysis result in data set [1] (100 μM) is listed as “spore lysis was observed”. Also, the “Length of the germination tubes” value in data set [1] (increasing concentrations) was “had an effect on the length of the germination tubes”. The “Growth of C. coccodes” value in data set [6] (0.01 μM) was “significant inhibitory effect”; in data set [6] (100 μM), “complete inhibition”. Also, the “Inhibition of growth of C. coccodes compared with the ethanol control” value in data set [6] (1 μM) is “more than half”.

As for `CCCCCCCCCCCCCCCCCCC(=O)/C=C/C(=O)O`, the IC50 in data set [1] (setting [7]) is 100 nM and 0.035 µg/mL.
